Ki data for three molecules are collected here from paper PMC3171632 (2011).

Experiment [1] addresses T1, LuxS (S-ribosylhomocysteinase) (Bacillus subtilis, UniProt O34667).
T1 sequence (O34667 1-157): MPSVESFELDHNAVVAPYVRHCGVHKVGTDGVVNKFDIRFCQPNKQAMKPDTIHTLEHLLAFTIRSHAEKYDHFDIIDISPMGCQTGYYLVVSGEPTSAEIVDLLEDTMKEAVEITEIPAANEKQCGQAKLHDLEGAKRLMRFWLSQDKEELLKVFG
Briefly: LuxS activity assay with SRH and DTNB at […] nm. The experiment is classed as biochemical.

In experiment [2] the target is T1, LuxS (S-ribosylhomocysteinase). In words: LuxS activity assay with SRH and DTNB at […] nm, […] min preincubation. The format is biochemical.

Take `N[C@@H](CCSC[C@H]1NC(=O)[C@H](O)[C@@H]1O)C(=O)O` [compound 21, S-(4-Amino-4,5-dideoxy-D-ribono-1,4-lactam-5-yl)-L-homocysteine]: the affinity in experiment [1] corresponds to a Ki of 37 µM. Consider `N[C@@H](CCSC[C@H]1NC(O)[C@H](O)[C@@H]1O)C(=O)O` (mixture of isomers) [compound 23, S-(4-Amino-4,5-dideoxy-α/β-D-ribofuranos-5-yl)-L-homocysteine], for which the affinity in experiment [2] corresponds to a Ki of 3.5 µM.

In turn, `N[C@@H](CCSC[C@H]1NC[C@H](O)[C@@H]1O)C(=O)O` [compound 12, S-(1-Amino-1,4-anhydro-1,5-dideoxy-D-ribitol-5-yl)-L-homocysteine] had a Ki in experiment [1] of 48 µM.

As a reminder, the Ki is a dissociation constant, usually derived from enzyme kinetics or from competition with a known ligand. A low value points to a stronger hold on the target.
